Measured values: patent US20250144069A1, “BILOBALIDE DERIVATIVE COMPOUNDS FOR TREATING NEUROLOGICAL DISEASES AND CANCERS” (The Chinese University of Hong Kong, priority 2023, published 2025)
Read-outs that look alike come from different tables or passages of the source.

Key:
Type in all cases: cell-based, human
[1] = Single-dose CCK-8 cell viability screening (adherent cells); settings: Homo sapiens, average of A549 and Jurkat % viability, 50 uM, 48 h
Procedure: (§1) In this example, the anti-cancer properties of the BB analogues described in Table 1d were evaluated. Single-dose screening approach is used for initial testing to assess the cytotoxic effect of the BB analogues (also referred to as ‘BB compounds’) on Jurkat cells (human T cell leukaemia cells) and A549 cells (human lung cancer cells).
(§2) Method for Adherent Cells (A549 Cells)
(§3) In this example, 5000 cells/100 uL were seeded in 96-well plates and incubate at 37° C.+5% CO2 overnight. Media were replaced with 100 uL of 50 uM compound per well in 6 replicates. The following controls were prepared.
(§4) Blank control: 100 uL 0.1% DMSO in media with no cells per well.
(§5) Positive control: 100 uL of 10 uM 5-flurouracil per well.
(§6) Negative control: 100 uL of 0.1% DMSO in media per well.
(§7) Each 96-well plate included 7 compounds and the complete set of controls (in 6 replicates).
(§8) Cells were incubated at 37° C.+5% CO2 for 46 hours. 10 uL of CCK8 solution was added to each well. Cells were then incubated at 37° C.+5% CO2 for 2 hours. Absorbance at 450 nm was measured using a multiplate reader.
(§9) Viability was calculated using the equation: […]
(§10) The benchmark in Table 2 was used to define the activities of each compound.

A549 cells = assay: as above; settings: Homo sapiens, read-out: % Viability (50 uM, 48 h) A549
Procedure: as §1, §2, §3, §4, §5, §6, §7, §8, §9, §10

Jurkat cells = assay: Single-dose CCK-8 cell viability screening (suspension cells); settings: Homo sapiens, 48 h
Procedure: as §1
Method for Suspension Cells (Jurkat Cells)
5000 cells/90 uL were seeded in 96-well plates. 10 uL of 500 uM compound (10×) was added to each well in 6 replicates. The following controls were prepared.
Blank control: 10 uL 1% DMSO in media with no cells per well.
Positive control: 10 uL of 100 uM 5-flurouracil (10×) per well.
Negative control: 10 uL of 1% DMSO in media (10×) per well.
Each 96-well plate included 7 BB analogues and the complete set of controls (in 6 replicates).
as §8, §9, §10

[2] = A549, 48 h, A549 cells, 50 uM, 48 h, CCK-8
[3] = Jurkat, Jurkat cells, 50 uM, CCK-8, read-out: % Viability (50 uM, 48 h) Jurkat
[4] = Jurkat, read-out: % Viability (50 uM, 48 h) Jurkat

| Compound | viability at 50 µM ([1]; A549, 48 h) | viability at 50 µM (A549 cells; [2]) | viability at 50 µM (Jurkat cells; [3]) | viability at 50 µM [1] | viability at 50 µM (A549 cells; A549, 48 h) | viability at 50 µM (Jurkat cells; [4]) | viability at 50 µM (A549 cells; A549 cells, 50 uM, 48 h, CCK-8) | viability at 50 µM (Jurkat cells; Jurkat cells, 50 uM, CCK-8, read-out: % Viability (50 uM, 48 h) Jurkat) |
| --- | --- | --- | --- | --- | --- | --- | --- | --- |
| CC(C)(C)[C@]1(O)C[C@@H]2OC(=O)C[C@@]23C(=O)O[C@@H]2N(CCC4CCNCC4)C(=O)C(OC(=O)c4ccccc4)[C@]213 (stereo in doubt) [XBB-024, 4-(2-((3aS,5aS,8S,8aS,9R,10aS)-8-(benzoyloxy)-9-(tert-butyl)-9-hydroxy-2,4,7-trioxohexahydro-4H,9H-furo [3″,2″:2′,3′]cyclopenta [1′,2′:3,4]furo[2,3-b]pyrrol-6(5aH)-yl)ethyl)piperidin-1-ium chloride] | 96.2% | 94.7% | 97.8% |  |  |  |  |  |
| CC(C)(C)[C@]1(O)C[C@@H]2OC(=O)C[C@@]23C(=O)O[C@@H]2N(CCN4CCNCC4)C(=O)C(OC(=O)c4ccccc4)[C@]213 (stereo in doubt) [XBB-028, 4-(2-((3aS,5aS,8S,8aS,9R,10aS)-8-(benzoyloxy)-9-(tert-butyl)-9-hydroxy-2,4,7-trioxohexahydro-4H,9H-furo [3″,2″:2′,3′]cyclopenta [1′,2′:3,4]furo [2,3-b]pyrrol-6(5aH)-yl)ethyl)piperazin-1-ium chloride] | 89.7% | 88.8% | 90.5% |  |  |  |  |  |
| CN1C(=O)[C@H](OC(=O)c2ccccc2)[C@@]23[C@@H]1OC(=O)[C@@]21CC(=O)O[C@H]1C[C@@]3(O)C(C)(C)C [DW168, (3aS,5aS,8R,8aS,9R,10aS)-9-(tert-butyl)-9-hydroxy-6-methyl-2,4,7-trioxooctahydro-4H,9H-furo [3″,2″:2′,3′]cyclopenta [1′,2′:3,4]furo[2,3-b]pyrrol-8-ylbenzoate] | 103% | 105% | 101% |  |  |  |  |  |
| CC(C)(C)[C@]1(O)C[C@@H]2OC(=O)C[C@@]23C(=O)O[C@@H]2N(C45CC(C4)C5)C(=O)[C@H](OC(=O)c4ccccc4)[C@]213 [DW172, (3aS,5aS,8R,8aS,9R,10aS)-6-(bicyclo[1.1.1]pentan-1-yl)-9-(tert-butyl)-9-hydroxy-2,4,7-trioxooctahydro-4H,9H-furo [3″,2″:2′,3′]cyclopenta [1′,2′:3,4]furo[2,3-b]pyrrol-8-yl benzoate] |  |  |  | 96.6% | 98.7% | 94.4% |  |  |
| CC(C)(C)[C@]1(O)C[C@@H]2OC(=O)C[C@@]23C(=O)O[C@@H]2N(C4COC4)C(=O)[C@H](OC(=O)c4ccccc4)[C@]213 [DW182, (3aS,5aS,8R,8aS,9R,10aS)-9-(tert-butyl)-9-hydroxy-6-(oxetan-3-yl)-2,4,7-trioxooctahydro-4H,9H-furo [3″,2″:2′,3′]cyclopenta [1′,2′:3,4]furo [2,3-b]pyrrol-8-yl benzoate] | 107% | 114% | 101% |  |  |  |  |  |
| CC(C)(C)[C@]1(O)C[C@@H]2OC(=O)C[C@@]23C(=O)O[C@@H]2N(CC4CCC4)C(=O)[C@H](OC(=O)c4ccccc4)[C@]213 [DW184, (3aS,5aS,8R,8aS,9R,10aS)-9-(tert-butyl)-6-(cyclobutylmethyl)-9-hydroxy-2,4,7-trioxooctahydro-4H,9H-furo [3″,2″:2′,3′]cyclopenta [1′,2′:3,4]furo [2,3-b]pyrrol-8-yl benzoate] | 81.1% | 93.5% | 68.7% |  |  |  |  |  |
| CC(C)(C)[C@]1(O)C[C@@H]2OC(=O)C[C@@]23C(=O)O[C@@H]2N(CC4CC4)C(=O)[C@H](OC(=O)c4ccccc4)[C@]213 [DW189, (3aS,5aS,8R,8aS,9R,10aS)-9-(tert-butyl)-6-(cyclopropylmethyl)-9-hydroxy-2,4,7-trioxooctahydro-4H,9H-furo [3″,2″:2′,3′]cyclopenta [1′,2′:3,4]furo[2,3-b]pyrrol-8-yl benzoate] | 101% | 107% | 95.3% |  |  |  |  |  |
| CC(C)(C)[C@]1(O)C[C@@H]2OC(=O)C[C@@]23C(=O)O[C@@H]2N(CC4COC4)C(=O)[C@H](OC(=O)c4ccccc4)[C@]213 [DW191, (3aS,5aS,8R,8aS,9R,10aS)-9-(tert-butyl)-6-(1-oxetan-3-ylmethyl)-9-hydroxy-2,4,7-trioxooctahydro-4H,9H-furo [3″,2″:2′,3′]cyclopenta [1′,2′:3,4]furo [2,3-b]pyrrol-8-yl benzoate] | 103% | 101% | 105% |  |  |  |  |  |
| CC(C)(C)[C@]1(O)C[C@@H]2OC(=O)C[C@@]23C(=O)O[C@@H]2N(N)C(=O)[C@H](O)[C@]213 [JW072, (3aS,5aS,8R,8aS,9R,10aS)-6-amino-9-(tert-butyl)-8,9-dihydroxytetrahydro-4H,9H-furo [3″,2″:2′,3′]cyclopenta [1′,2′:3,4]furo [2,3-b]pyrrole-2,4,7(3H,8H)-trione] |  |  |  | 100% |  |  | 103% | 97.2% |
| CC(C)(C)[C@]1(O)C[C@@H]2OC(=O)C[C@@]23C(=O)O[C@@H]2N(C4CCCC4)C(=O)[C@H](OC(=O)c4ccccc4)[C@]213 [JW081, (3aS,5aS,8R,8aS,9R,10aS)-9-(tert-butyl)-6-cyclopentyl-9-hydroxy-2,4,7-trioxooctahydro-4H,9H-furo[3″,2″:2′,3′]cyclopenta [1′,2′:3,4]furo[2,3-b]pyrrol-8-yl benzoate] |  |  |  | 88.3% | 89.5% | 87.1% |  |  |
| COc1cccc(N2C(=O)[C@H](OC(=O)c3ccccc3)[C@@]34[C@@H]2OC(=O)[C@@]32CC(=O)O[C@H]2C[C@@]4(O)C(C)(C)C)c1 [JW092, (3aS,5aS,8R,9R,10aS)-9-(tert-butyl)-9-hydroxy-6-(3-methoxyphenyl)-2,4,7-trioxodecahydrofuro [3″,2″:2′,3′]cyclopenta [1′,2′:3,4]furo [2,3-b]pyrrol-8-yl benzoate] | 61.5% | 53.7% | 69.3% |  |  |  |  |  |
| COc1ccc(N2C(=O)[C@H](OC(=O)c3ccccc3)[C@@]34[C@@H]2OC(=O)[C@@]32CC(=O)O[C@H]2C[C@@]4(O)C(C)(C)C)cc1 [JW093, (3aS,5aS,8R,9R,10aS)-9-(tert-butyl)-9-hydroxy-6-(4-methoxyphenyl)-2,4,7-trioxodecahydrofuro [3″,2″:2′,3′]cyclopenta [1′,2′:3,4]furo [2,3-b]pyrrol-8-yl benzoate] | 67.5% | 68.7% | 66.3% |  |  |  |  |  |
| CC(C)(C)[C@]1(O)C[C@@H]2OC(=O)C[C@@]23C(=O)O[C@@H]2N(c4ccc5ccccc5c4)C(=O)[C@H](OC(=O)c4ccccc4)[C@]213 [JW094, (3aS,5aS,8R,9R,10aS)-9-(tert-butyl)-9-hydroxy-6-(naphthalen-2-yl)-2,4,7-trioxodecahydrofuro [3″,2″:2′,3′]cyclopenta [1′,2′:3,4]furo [2,3-b]pyrrol-8-yl benzoate] | 76.7% | 76.5% | 76.9% |  |  |  |  |  |
| COc1ccccc1N1C(=O)[C@H](OC(=O)c2ccccc2)[C@@]23[C@@H]1OC(=O)[C@@]21CC(=O)O[C@H]1C[C@@]3(O)C(C)(C)C [JW095, (3aS,5aS,8R,9R,10aS)-9-(tert-butyl)-9-hydroxy-6-(2-methoxyphenyl)-2,4,7-trioxodecahydrofuro [3″,2″:2′,3′]cyclopenta [1′,2′:3,4]furo [2,3-b]pyrrol-8-yl benzoate] | 78.1% | 87.2% | 69% |  |  |  |  |  |
